Article PMC9572513, “Novel Unsymmetric 3,5-Bis(benzylidene)-4-piperidones That Display Tumor-Selective Toxicity” (Molecules, 2022)
Read-outs that look alike come from different tables or passages of the source.

Experiments:
[1] = test system: Ca9-22, HSC-2, HSC-3, and HSC-4 squamous cell carcinoma cell lines; assay: Average over Ca9-22, HSC-2, HSC-3 and HSC-4 OSCC cell lines; type: cell-based, human; conditions: for CC50: average of four OSCC cell lines, read-out: Average CC50; for Average SI: average of SI for four OSCC cell lines
Experimental: (§1) The method for evaluating 2a–f and 3a–e against human oral squamous cell carcinoma (OSCC) cell lines (Ca9-22, HSC-2, HSC-3, HSC-4) and human non-malignant oral cells [human gingival fibroblast (HGF), human periodontal ligament fibroblast (HPLF), and human pulp cell (HPC)] have been reported previously, except the length of time of this bioassay was extended from 24 h to 48 h. In brief, different quantities of the compounds were incubated with the cells in Dulbecco’s modified eagle medium (DMEM), which was supplemented with 10% FBS and antibiotics. The cell viability was determined by the 3-(4,5-dimethylthiazol-2-yl)-2,5-diphenyl-2H-tetrazolium bromide (MTT) method as summarized previously (Figure 4).

[2] = test system: CRL1790 non-malignant colon cells; assay: Cytotoxicity against CRL1790 non-malignant colon cells; type: cell-based; conditions: Homo sapiens, 48 h
Experimental: (§2) The culture medium was supplemented with 10% heat-inactivated fetal bovine serum (FBS) and 1% penicillin–streptomycin antibiotics. The time of the bioassays was 48 h. The determinations were undertaken in triplicate on three different occasions.

[3] = Average over HGF, HPLF and HPC non-malignant oral cells; type: cell-based, human; conditions: human, HPLF and HPC non-malignant oral cells (average), average of HGF
Experimental: as §1

[4] = test system: HCT116 and HT29 colon cancer cells; assay: Average over HCT116 and HT29 colon cancer cells; type: cell-based, human; conditions: for IC50: Homo sapiens, average of HCT116 and HT29, unit printed only for the single cell-line columns; for Average SI: average of SI for HCT116 and HT29; for PSE (potency-selectivity expression): reciprocal of average IC50 x average SI x 100, colon cells
Experimental: as §2

HL-60 cells = assay: Differential DNA staining (DNS) cytotoxicity assay, HL-60 cells; type: cell-based; conditions: Homo sapiens
Experimental: (§3) The method used for generating the data of human acute lymphocytic leukemia (CEM) and human acute promyelocytic leukemia (HL-60) cells in Table 4 has been described previously. In brief, the cells were cultured in media supplemented with 10% FBS and antibiotics. […] The CC50 values of the compounds listed in Table 4 were obtained by linear interpolation equations [28, 29].

CEM cells [5] = assay: ROS production in CEM cells (carboxy-H2DCFDA, flow cytometry); type: cell-based, human; conditions: CC50 and twice the CC50 concentrations
Experimental: (§4) Apoptosis induction in Ca9-22 cells was evaluated by cell cycle analysis and Western blot analysis as described previously (Figure 5). Briefly, for the cell cycle analysis, cells were treated for 24 h with the test samples. Cells were then fixed, digested with RNase A, stained with propidium iodide, filtered through Falcon® cell trainers (Corning Inc., Corning, NY, USA), and then subjected to cell sorting. For the Western blot, cell lysates (equivalent to 5 µg protein) were applied to SDS-polyacrylamide gel electrophoresis. A literature method was used to determine whether representative compounds led to increases in the production of ROS [29]. In brief, CEM cells were treated with the compounds overnight, then with 6-carboxy-2′,7′-dichlorodihydrofluorescein diacetate (carboxy-H2DCFDA) and the samples were processed using flow cytometry.

[6] = test system: HSC-3 squamous cell carcinoma cells; assay: MTT cytotoxicity against HSC-3 squamous cell carcinoma; type: cell-based, human; conditions: for CC50: 48 h, MTT, read-out: HSC-3 CC50; for HSC-3 SI: average CC50 HGF/HPLF/HPC divided by CC50 HSC-3
Experimental: as §1

Ca9-22 cells [7] = assay: Cell cycle analysis in Ca9-22 cells (propidium iodide); type: cell-based, human; conditions: dose-response 0.625-10 μM, 24 h
Experimental: Apoptosis induction in Ca9-22 cells was evaluated by cell cycle analysis and Western blot analysis as described previously [25, 28] […] Briefly, for the cell cycle analysis, cells were treated for 24 h with the test samples. Cells were then fixed, digested with RNase A, stained with propidium iodide, filtered through Falcon® cell trainers (Corning Inc., Corning, NY, USA), and then subjected to cell sorting.

CEM cells [8] = assay: Differential DNA staining (DNS) cytotoxicity assay, CEM cells; type: cell-based; conditions: Homo sapiens, CCRF-CEM
Experimental: as §3

CEM cells [9] = assay: Mitochondrial membrane potential in CEM cells (JC-1, flow cytometry); type: cell-based, human; conditions: 7 h
Experimental: The effect on the mitochondrial membrane potential in CEM cells was undertaken using a published method. In brief, the cells were incubated with different compounds for 7 h. The cells were then stained with the JC-1 dye, and the samples were examined by flow cytometry. The results are portrayed in Figure 6C.

Ca9-22 cells [10] = assay: Western blot for caspase 3 activation in Ca9-22 cells; type: cell-based, human; conditions: 3 μM, 24 h
Experimental: as §4

[11] = test system: HSC-2 squamous cell carcinoma cells; assay: MTT cytotoxicity against HSC-2 squamous cell carcinoma; type: cell-based, human; conditions: for CC50: 48 h, MTT, read-out: HSC-2 CC50; for HSC-2 SI: average CC50 HGF/HPLF/HPC divided by CC50 HSC-2
Experimental: as §1

[12] = MTT cytotoxicity against human pulp cell (HPC); type: cell-based; conditions: human, human pulp cells (HPC), non-malignant oral cells
Experimental: as §1

[13] = MTT cytotoxicity against human periodontal ligament fibroblast (HPLF); type: cell-based; conditions: human, human periodontal ligament fibroblasts (HPLF), non-malignant oral cells
Experimental: as §1

[14] = test system: HSC-4 squamous cell carcinoma cells; assay: MTT cytotoxicity against HSC-4 squamous cell carcinoma; type: cell-based, human; conditions: for CC50: 48 h, MTT, read-out: HSC-4 CC50; for HSC-4 SI: average CC50 HGF/HPLF/HPC divided by CC50 HSC-4
Experimental: as §1

CEM cells [15] = assay: Annexin V-FITC apoptosis assay in CEM cells; type: cell-based, human; conditions: CC50 and twice the CC50 concentrations, 24 h
Experimental: In order to discover if representative compounds induce apoptosis, the annexin V-FITC assay was used. In brief, CEM cells were treated with various compounds for 24 h. The cells were collected and stained with propidium iodide and annexin V-FITC.

[16] = test system: Ca9-22 squamous cell carcinoma cells; assay: MTT cytotoxicity against Ca9-22 squamous cell carcinoma; type: cell-based, human; conditions: for CC50: 48 h, MTT, read-out: Ca9-22 CC50; for Ca9-22 SI: average CC50 HGF/HPLF/HPC divided by CC50 Ca9-22
Experimental: as §1

[17] = MTT cytotoxicity against human gingival fibroblast (HGF); type: cell-based; conditions: human, human gingival fibroblasts (HGF), non-malignant oral cells
Experimental: as §1

HT29 colon cancer cells = assay: Cytotoxicity against HT29 colon cancer cells; type: cell-based, human; conditions: for HT29 SI (selectivity index): IC50 CRL1790 / IC50 HT29
Experimental: as §2

[18] = test system: HCT116 colon cancer cells; assay: Cytotoxicity against HCT116 colon cancer cells; type: cell-based, human; conditions: for HCT116 SI (selectivity index): IC50 CRL1790 / IC50 HCT116
Experimental: as §2

[19] = test system: human oral squamous carcinoma; parameters: method as in PMID 32858984, PMID 31892556; conditions: cited from earlier work
[20] = test system: HGF, HPLF, and HPC non-malignant cells; assay: Average over HGF, HPLF and HPC non-malignant oral cells; type: cell-based, human; conditions: average of HGF
Experimental: as §1

HPC non-malignant cells = assay: MTT cytotoxicity against human pulp cell (HPC); type: cell-based; conditions: non-malignant oral cells, 48 h
Experimental: as §1

HPLF non-malignant cells = assay: MTT cytotoxicity against human periodontal ligament fibroblast (HPLF); type: cell-based; conditions: non-malignant oral cells, 48 h
Experimental: as §1

HGF non-malignant cells = assay: MTT cytotoxicity against human gingival fibroblast (HGF); type: cell-based; conditions: non-malignant oral cells, 48 h
Experimental: as §1

[21] = HL-60, 24 h, read-out: CC50 HL-60 Cells 24 h
[22] = HL-60, 48 h, read-out: CC50 HL-60 Cells 48 h
[23] = 24 h, read-out: CC50 CEM Cells 24 h
[24] = 48 h, read-out: CC50 CEM Cells 48 h

SMILES | CC50 ([1]; Homo sapiens) | Average SI [1] | CC50 [1] | IC50 [2] | CC50 at 48 h [3] | IC50 [4] | Average SI [4] | PSE (potency-selectivity expression) [4] | CC50 (HL-60 cells; [21]) | CC50 (HL-60 cells; [22]) | ROS generation (CEM cells [5]) | CC50 ([6]; Homo sapiens, HSC-3) | HSC-3 SI [6] | CC50 (CEM cells [8]; [23]) | CC50 (CEM cells [8]; [24]) | depolarization of the mitochondrial membrane potential (CEM cells [9]) | caspase 3 activation (cleavage of PARP and procaspase) (Ca9-22 cells [10]) | HSC-2 SI [11] | HSC-4 SI [14] | Ca9-22 SI [16] | further results
CCN(CC)Cc1cc(C=C2CNCC(=Cc3ccc(OC)c(OC)c3)C2=O)ccc1O.Cl.Cl [Compound 2b, 3-(3-Diethylaminomethyl-4-hydroxybenzylidene)-5-(3,4-dimethoxybenzylidene)-4-piperidone dihydrochloride] | < 1 µM | 8.27 | 0.9 µM | 15.2 ± 0.15 µM | 7.03 µM | 0.25 µM | 64.2 | 25,680 | 7.75 ± 0.26 µM | 4.82 ± 0.91 µM | generate ROS | 0.76 µM | 9.25 | 0.63 ± 0.08 µM | 0.82 ± 0.03 µM | induced | induced | 6.96 | 6.06 | 10.8 | optimal concentration for the subG1 population (Ca9-22 cells [7]): 2.5 µM; CC50 ([11]; Homo sapiens, HSC-2): 1.01 µM; CC50 at 48 h [12]: 2.3 µM; CC50 at 48 h [13]: 5.5 µM; CC50 ([14]; Homo sapiens, HSC-4): 1.16 µM; apoptotic cells (CEM cells [15]): approximately 30%; CC50 ([16]; Homo sapiens, Ca9-22): 0.65 µM; CC50 at 48 h [17]: 13.3 µM
CN1CCN(Cc2cc(/C=C3\CNC/C(=C\c4ccc([N+](=O)[O-])cc4)C3=O)ccc2O)CC1 [Compound 3e] | < 1 µM | – | 0.5 µM | 15.8 ± 0.27 µM | 5.7 µM | 0.33 µM | 48.0 | 14,546 | 4.11 µM | 6.63 ± 0.68 µM | generate ROS | 0.47 µM | 12.1 | 0.76 ± 0.15 µM | 0.83 ± 0.03 µM | induced | induced | 9.83 | 9.50 | 17.3 | CC50 ([11]; Homo sapiens, HSC-2): 0.58 µM; CC50 at 48 h [12]: 1.9 µM; CC50 at 48 h [13]: 2.7 µM; HT29 SI (selectivity index) (HT29 colon cancer cells): 49.4; HCT116 SI (selectivity index) [18]: 46.5; CC50 ([14]; Homo sapiens, HSC-4): 0.6 µM; apoptotic cells (CEM cells [15]): approximately 30%; CC50 ([16]; Homo sapiens, Ca9-22): 0.33 µM; CC50 at 48 h [17]: 12.5 µM
COc1ccc(C=C2CNCC(=Cc3ccc(O)c(CN(C)C)c3)C2=O)cc1OC.Cl.Cl [Compound 2a, 3-(3,4-Dimethoxybenzylidene)-5-(3-((dimethylamino)methyl)-4-hydroxybenzylidene)-4-piperidone dihydrochloride] | 1.08 µM | 7.67 | – | 17.5 ± 0.58 µM | 7.73 µM | 1.77 µM | 9.91 | 560 | 1.99 ± 0.92 µM | 2.21 ± 0.37 µM | generate ROS | 1.06 µM | 7.29 | 1.64 ± 0.68 µM | 0.82 ± 0.02 µM | induced | induced | 6.44 | 5.56 | 11.4 | CC50 ([11]; Homo sapiens, HSC-2): 1.2 µM; CC50 at 48 h [12]: 2.3 µM; CC50 at 48 h [13]: 5 µM; IC50 (HT29 colon cancer cells; Homo sapiens, HT-29, 48 h, 48 h): 1.8 ± 1.24 µM; HT29 SI (selectivity index) (HT29 colon cancer cells): 9.72; IC50 ([18]; Homo sapiens, HCT-116, 48 h, 48 h): 1.73 ± 0.48 µM; HCT116 SI (selectivity index) [18]: 10.1; CC50 ([14]; Homo sapiens, HSC-4): 1.39 µM; apoptotic cells (CEM cells [15]): approximately 30%; CC50 ([16]; Homo sapiens, Ca9-22): 0.68 µM; CC50 at 48 h [17]: 15.9 µM
COc1ccc2c(=O)c(/C=C/c3ccc(O)cc3)coc2c1 [3-[(1E)-2-(4-hydroxyphenyl)ethenyl]-7-methoxy-4H-1-benzopyran-4-one] | – | – | – | – | – | – | – | – | – | – | – | – | – | – | – | – | – | – | – | – | SI (tumor specificity) [19]: 182
COc1ccc2c(=O)c(/C=C/c3ccccc3)coc2c1 [7-methoxy-3-[(1E)-2-phenylethenyl]-4H-1-benzopyran-4-one] | – | – | – | – | – | – | – | – | – | – | – | – | – | – | – | – | – | – | – | – | SI (tumor specificity) [19]: 301
[NH2][Pt]([NH2])([Cl])[Cl] [CDDP, cisplatin, reference compound] | – | >11.1 | 131 µM | – | – | – | – | – | – | – | – | – | >21.3 | – | – | – | – | >4.90 | >16.6 | >4.72 | CC50 [20]: > 1000 µM; CC50 [6]: 46.9 µM; CC50 [11]: 204 µM; CC50 (HPC non-malignant cells): > 1000 µM; CC50 (HPLF non-malignant cells): > 1000 µM; CC50 [14]: 60.4 µM; CC50 [16]: 212 µM; CC50 (HGF non-malignant cells): > 1000 µM
